Consider 13 molecules from ChEMBL document CHEMBL4765416, “Design, synthesis, and evaluation of pyrrolidine based CXCR4 antagonists with in vivo anti-tumor metastatic activity” (Eur J Med Chem, 2020).

Active and inactive are the calls of the source. No cut-off for these calls is given here. Where only a bound is given, the exact number is not on record here.

The target of data set [1] is T1, C-X-C chemokine receptor type 4 (Homo sapiens, UniProt P61073). In words: Inhibition of APC-conjugated anti-human CXCR4 clone 12G5 binding to CXCR4 in human HPBALL cells measured after 3 hrs by FACS analysis. Format: cell-based.
Data set [2] in a line: Protein binding in mouse plasma at 1 uM. Type of data set: ADME, cell-free. To be noted: read-out: PPB (converted).
Data set [3] can be described thus: Intrinsic clearance in rat liver microsomes at 1 uM peincubated for 10 mins followed by NADPH addition and measured 60 mins by LC-MS/MS analysis. To be noted: time 70 min, read-out: CLH. Type of data set: ADME, Microsome.
Data set [4] in a line: Half life in rat liver microsomes at 1 uM peincubated for 10 mins followed by NADPH addition and measured 60 mins by LC-MS/MS analysis. To be noted: time 70 min. Format: ADME, Microsome.
Data set [5] deals with T1, C-X-C chemokine receptor type 4. In words: Antagonist activity at CXCR4 in human CD4-positive T cells assessed as inhibition of CXCL12-induced cytosolic calcium flux preincubated for 20 mins followed by CXCL12 addition by calcium 4 dye based FLIPR TETRA analysis. Format: functional, cell-based, T cell.
Data set [6] is described as follows: 1-Octanol/water partition coefficient, log P of compound at pH 7.4 measured after 24 hrs by shake flask method. Type of data set: physicochemical.
Data set [7] is described as follows: Dissociation constant, basic pKa of compound by titration method. Type of data set: physicochemical.
The target of data set [8] is T2, C-X-C chemokine receptor type 1 (Homo sapiens) (UniProt P25024).
T2 sequence (whole entry): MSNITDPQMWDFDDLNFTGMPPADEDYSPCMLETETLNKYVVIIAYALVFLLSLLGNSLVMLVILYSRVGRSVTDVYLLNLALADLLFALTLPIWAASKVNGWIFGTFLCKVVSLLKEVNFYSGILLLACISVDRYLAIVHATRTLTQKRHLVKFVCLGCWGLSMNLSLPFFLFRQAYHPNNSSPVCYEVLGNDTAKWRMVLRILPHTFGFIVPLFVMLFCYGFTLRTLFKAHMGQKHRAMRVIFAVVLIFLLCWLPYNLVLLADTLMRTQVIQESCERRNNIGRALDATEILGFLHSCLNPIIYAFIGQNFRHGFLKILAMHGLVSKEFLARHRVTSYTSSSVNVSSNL
In words: Antagonist activity at CXCR1 (unknown origin) expressed in HEK293 cells assessed as suppression of IL-8-induced inhibition of forskolin-induced cAMP formation up to 10 uM preincubated for 15 mins followed by forskolin and IL-8 stimulation and measured after 15 mins by cAMP-d2 and Eu-Anti-cAMP based fluorescence assay. Type of data set: functional, cell-based. To be noted: dose microM <=10, time 30.0 min.

For data set [9], the target named is T3, C-C chemokine receptor type 6 (Homo sapiens) (UniProt P51684).
T3 sequence (whole entry): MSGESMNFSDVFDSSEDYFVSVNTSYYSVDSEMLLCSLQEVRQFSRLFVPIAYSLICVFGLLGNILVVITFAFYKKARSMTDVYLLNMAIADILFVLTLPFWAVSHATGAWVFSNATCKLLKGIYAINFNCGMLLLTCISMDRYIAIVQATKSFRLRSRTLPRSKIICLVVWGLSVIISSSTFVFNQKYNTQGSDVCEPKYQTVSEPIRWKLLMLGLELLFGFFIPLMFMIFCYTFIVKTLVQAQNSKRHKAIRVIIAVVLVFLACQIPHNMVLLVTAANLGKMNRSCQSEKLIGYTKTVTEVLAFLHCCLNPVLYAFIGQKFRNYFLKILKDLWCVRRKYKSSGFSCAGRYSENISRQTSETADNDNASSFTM
Put plainly: Antagonist activity at CCR6 in human CD4-positive T cells assessed as inhibition of CCL20-induced cytosolic calcium flux up to 10 uM by calcium 4 dye based FLIPR TETRA analysis. Format: functional. To be noted: T cell, dose microM <=10.

For data set [10], the target named is T1, C-X-C chemokine receptor type 4. In words: Antagonist activity at CXCR4 in human MDA-MB-231 cells assessed as inhibition of CXCL12-induced cell migration at 100 nM measured after 24 hrs by crystal violet staining based matrigel invasion assay. The settings on record: filed as antagonist.
The subject of data set [11] is L929. In words: Cytotoxicity against mouse L929 cells assessed as reduction in cell proliferation up to 1000 nM by ATP-based celltiter-glo luminescent assay.
Data set [12] has as its system MEF. Put plainly: Cytotoxicity against MEF cells assessed as reduction in cell proliferation up to 1000 nM by ATP-based celltiter-glo luminescent assay. The settings on record: mouse.
Data set [13] in a line: Cytotoxicity against […] Hepa1-6 cells assessed as reduction in cell proliferation up to 1000 nM by ATP-based celltiter-glo luminescent assay.
The subject of data set [14] is MDA-MB-231. Put plainly: Cytotoxicity against human MDA-MB-231 cells assessed as reduction in cell proliferation up to 1000 nM by ATP-based celltiter-glo luminescent assay.
In data set [15] the target is T4, CYP1A2 (Homo sapiens, UniProt P05177).
T4 sequence (P05177 whole entry): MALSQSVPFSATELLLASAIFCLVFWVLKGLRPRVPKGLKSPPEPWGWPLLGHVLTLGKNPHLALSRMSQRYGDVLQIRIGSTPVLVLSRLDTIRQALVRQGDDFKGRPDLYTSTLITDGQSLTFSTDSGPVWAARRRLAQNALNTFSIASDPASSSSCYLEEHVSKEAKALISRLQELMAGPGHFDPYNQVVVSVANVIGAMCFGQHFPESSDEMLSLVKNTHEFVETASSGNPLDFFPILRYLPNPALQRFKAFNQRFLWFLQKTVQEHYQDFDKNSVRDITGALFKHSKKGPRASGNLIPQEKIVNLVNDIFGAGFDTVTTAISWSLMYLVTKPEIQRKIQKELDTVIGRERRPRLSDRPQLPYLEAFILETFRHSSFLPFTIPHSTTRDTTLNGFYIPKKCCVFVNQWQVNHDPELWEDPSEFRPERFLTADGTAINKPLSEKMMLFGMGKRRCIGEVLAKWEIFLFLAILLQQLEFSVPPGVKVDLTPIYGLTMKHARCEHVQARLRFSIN
In words: Inhibition of CYP1A2 in human liver microsomes at 10 uM using phenacetin as substrate preincubated for 10 mins followed by NADPH addition measured after 10 mins by LC-MS/MS analysis relative to control. Type of data set: ADME. To be noted: probe phenacetin, time 20 min.

Data set [16] addresses CYP2C9 (Homo sapiens, UniProt P11712). In words: Inhibition of CYP2C9 in human liver microsomes at 10 uM using tolbutamide as substrate preincubated for 10 mins followed by NADPH addition measured after 10 mins by LC-MS/MS analysis relative to control. Type of data set: ADME. To be noted: probe tolbutamide.
Data set [17] concerns the target CYP2C19 (Homo sapiens, UniProt P33261). In words: Inhibition of CYP2C19 in human liver microsomes at 10 uM using S-mephenytoin as substrate preincubated for 10 mins followed by NADPH addition measured after 10 mins by LC-MS/MS analysis relative to control. Type of data set: ADME. To be noted: probe S-mephenytoin, time 20 min.
In data set [18] the target is CYP2D6 (Homo sapiens, UniProt P10635). Put plainly: Inhibition of CYP2D6 in human liver microsomes at 10 uM using dextromethorphan as substrate preincubated for 10 mins followed by NADPH addition measured after 10 mins by LC-MS/MS analysis relative to control. Format: ADME. To be noted: probe dextromethorphan, time 20 min.
Data set [19] deals with T5, CYP3A4 (Homo sapiens, UniProt P08684). Put plainly: Inhibition of CYP3A4 in human liver microsomes at 10 uM using midazolam as substrate preincubated for 10 mins followed by NADPH addition measured after 10 mins by LC-MS/MS analysis relative to control. Format: ADME. To be noted: probe midazolam, time 20 min.
Data set [20] deals with T5, CYP3A4. In words: Inhibition of CYP3A4 in human liver microsomes at 10 uM using testosterone as substrate preincubated for 10 mins followed by NADPH addition measured after 10 mins by LC-MS/MS analysis relative to control. Format: ADME. To be noted: probe testosterone, time 20 min.
Data set [21] concerns the target Voltage-gated inwardly rectifying potassium channel KCNH2 (Homo sapiens, UniProt Q12809). Put plainly: Inhibition of human ERG stably expressed in CHO cells at -80 mV holding potential measured after 4 mins by Qpatch electrophysiological assay. Format: cell-based.
Data set [22] is described as follows: Protein binding in rat plasma at 1 uM. The settings on record: read-out: PPB (converted). Type of data set: ADME, cell-free.
Data set [23] can be described thus: Protein binding in human plasma at 1 uM. Format: ADME, cell-free. To be noted: read-out: PPB (converted).
Data set [24] is described as follows: Intrinsic clearance in human liver microsomes at 1 uM peincubated for 10 mins followed by NADPH addition and measured 60 mins by LC-MS/MS analysis. Format: ADME, Microsome. The settings on record: time 70 min, read-out: CLH.
Data set [25] can be described thus: Half life in human liver microsomes at 1 uM peincubated for 10 mins followed by NADPH addition and measured 60 mins by LC-MS/MS analysis. The settings on record: time 70 min. Format: ADME, Microsome.
For data set [26], the system named is Lewis lung carcinoma. Put plainly: Antimetastatic activity against RFP-labelled LL2 cells allografted in C57BL6 mouse assessed as reduction in metastatic lung nodules at 70 mg/kg, ip treated 30 mins prior to tumor implantation followed by redosing at 3 hrs post tumor implantation and subsequent daily dosing for 18 days by fluorescence assay. Type of data set: functional, organism-based. To be noted: time 18.0 day.

T1 sequence (P61073 whole entry): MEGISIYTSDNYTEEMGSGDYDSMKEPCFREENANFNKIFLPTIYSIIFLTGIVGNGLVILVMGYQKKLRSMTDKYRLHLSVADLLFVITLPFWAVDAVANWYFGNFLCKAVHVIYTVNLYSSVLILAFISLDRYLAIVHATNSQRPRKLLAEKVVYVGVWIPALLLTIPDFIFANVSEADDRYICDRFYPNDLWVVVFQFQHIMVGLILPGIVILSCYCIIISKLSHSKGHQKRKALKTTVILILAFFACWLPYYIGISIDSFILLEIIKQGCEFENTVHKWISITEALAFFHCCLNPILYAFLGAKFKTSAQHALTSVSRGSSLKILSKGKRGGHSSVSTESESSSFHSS
T5 sequence (P08684 whole entry): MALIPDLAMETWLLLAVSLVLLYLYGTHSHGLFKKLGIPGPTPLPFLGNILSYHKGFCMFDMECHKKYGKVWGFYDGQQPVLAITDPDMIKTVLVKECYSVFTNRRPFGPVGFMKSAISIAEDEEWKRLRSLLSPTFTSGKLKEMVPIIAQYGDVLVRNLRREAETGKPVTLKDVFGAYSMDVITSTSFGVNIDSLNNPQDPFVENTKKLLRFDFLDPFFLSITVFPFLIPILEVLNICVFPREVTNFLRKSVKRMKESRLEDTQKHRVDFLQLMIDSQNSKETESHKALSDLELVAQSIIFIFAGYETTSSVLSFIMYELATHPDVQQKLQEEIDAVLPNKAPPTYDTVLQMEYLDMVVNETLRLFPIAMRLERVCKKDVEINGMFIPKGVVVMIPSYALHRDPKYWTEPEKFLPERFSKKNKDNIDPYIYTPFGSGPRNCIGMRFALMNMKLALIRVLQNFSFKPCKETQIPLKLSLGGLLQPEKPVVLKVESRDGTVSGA
Voltage-gated inwardly rectifying potassium channel KCNH2, sequence (Q12809 whole entry): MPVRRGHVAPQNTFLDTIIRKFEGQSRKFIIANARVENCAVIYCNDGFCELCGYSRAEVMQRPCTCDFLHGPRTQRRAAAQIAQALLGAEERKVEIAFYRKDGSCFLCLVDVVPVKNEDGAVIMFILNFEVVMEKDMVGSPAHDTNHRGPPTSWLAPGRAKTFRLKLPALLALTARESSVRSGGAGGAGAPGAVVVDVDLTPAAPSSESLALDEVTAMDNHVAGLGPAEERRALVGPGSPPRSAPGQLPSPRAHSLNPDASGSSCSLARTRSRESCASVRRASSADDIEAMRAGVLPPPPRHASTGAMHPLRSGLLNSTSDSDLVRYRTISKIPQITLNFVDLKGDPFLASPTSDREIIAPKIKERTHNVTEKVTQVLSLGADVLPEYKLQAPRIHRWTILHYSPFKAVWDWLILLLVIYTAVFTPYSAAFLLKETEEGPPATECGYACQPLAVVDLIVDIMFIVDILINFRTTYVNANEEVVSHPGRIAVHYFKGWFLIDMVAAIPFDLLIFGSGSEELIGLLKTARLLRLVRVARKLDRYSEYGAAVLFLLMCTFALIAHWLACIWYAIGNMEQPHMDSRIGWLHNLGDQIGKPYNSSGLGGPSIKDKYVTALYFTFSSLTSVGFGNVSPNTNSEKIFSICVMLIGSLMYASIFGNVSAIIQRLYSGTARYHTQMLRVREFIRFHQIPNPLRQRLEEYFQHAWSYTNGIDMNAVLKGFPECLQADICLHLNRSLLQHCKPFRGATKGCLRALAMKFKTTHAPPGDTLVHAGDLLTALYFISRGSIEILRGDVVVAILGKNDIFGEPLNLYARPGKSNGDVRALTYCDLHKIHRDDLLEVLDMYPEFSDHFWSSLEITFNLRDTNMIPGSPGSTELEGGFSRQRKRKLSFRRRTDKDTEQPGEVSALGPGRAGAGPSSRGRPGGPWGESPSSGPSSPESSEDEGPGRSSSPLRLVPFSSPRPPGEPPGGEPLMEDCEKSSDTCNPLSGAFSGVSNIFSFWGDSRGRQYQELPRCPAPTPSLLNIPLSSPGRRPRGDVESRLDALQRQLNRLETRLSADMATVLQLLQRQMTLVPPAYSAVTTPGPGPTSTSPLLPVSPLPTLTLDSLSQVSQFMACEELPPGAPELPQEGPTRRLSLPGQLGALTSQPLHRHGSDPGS
CYP2C19, sequence (P33261 whole entry): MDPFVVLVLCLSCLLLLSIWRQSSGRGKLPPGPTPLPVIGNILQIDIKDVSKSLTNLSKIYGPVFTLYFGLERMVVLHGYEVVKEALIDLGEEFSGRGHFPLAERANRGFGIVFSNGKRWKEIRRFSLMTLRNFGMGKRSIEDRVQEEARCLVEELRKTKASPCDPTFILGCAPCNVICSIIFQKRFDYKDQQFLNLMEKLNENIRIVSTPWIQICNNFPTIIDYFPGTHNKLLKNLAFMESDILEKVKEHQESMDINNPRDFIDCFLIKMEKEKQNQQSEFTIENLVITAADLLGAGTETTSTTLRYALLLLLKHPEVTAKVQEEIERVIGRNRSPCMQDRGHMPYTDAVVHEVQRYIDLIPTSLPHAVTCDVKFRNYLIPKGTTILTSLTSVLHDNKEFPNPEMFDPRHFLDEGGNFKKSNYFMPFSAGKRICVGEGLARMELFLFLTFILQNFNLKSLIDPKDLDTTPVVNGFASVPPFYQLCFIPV
CYP2C9, sequence (P11712 whole entry): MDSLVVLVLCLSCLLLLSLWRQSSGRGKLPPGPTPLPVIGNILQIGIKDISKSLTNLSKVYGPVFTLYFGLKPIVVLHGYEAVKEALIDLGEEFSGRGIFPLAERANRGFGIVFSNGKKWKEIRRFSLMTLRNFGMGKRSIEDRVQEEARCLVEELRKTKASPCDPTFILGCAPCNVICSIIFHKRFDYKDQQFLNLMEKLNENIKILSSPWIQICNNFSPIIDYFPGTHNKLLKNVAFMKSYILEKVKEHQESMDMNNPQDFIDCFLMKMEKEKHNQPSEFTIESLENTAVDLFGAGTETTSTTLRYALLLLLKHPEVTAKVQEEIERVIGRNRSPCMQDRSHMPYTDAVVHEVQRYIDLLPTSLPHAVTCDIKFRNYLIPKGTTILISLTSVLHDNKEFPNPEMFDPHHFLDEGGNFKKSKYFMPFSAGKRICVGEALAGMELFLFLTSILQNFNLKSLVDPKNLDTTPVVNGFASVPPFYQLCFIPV
CYP2D6, sequence (P10635 whole entry): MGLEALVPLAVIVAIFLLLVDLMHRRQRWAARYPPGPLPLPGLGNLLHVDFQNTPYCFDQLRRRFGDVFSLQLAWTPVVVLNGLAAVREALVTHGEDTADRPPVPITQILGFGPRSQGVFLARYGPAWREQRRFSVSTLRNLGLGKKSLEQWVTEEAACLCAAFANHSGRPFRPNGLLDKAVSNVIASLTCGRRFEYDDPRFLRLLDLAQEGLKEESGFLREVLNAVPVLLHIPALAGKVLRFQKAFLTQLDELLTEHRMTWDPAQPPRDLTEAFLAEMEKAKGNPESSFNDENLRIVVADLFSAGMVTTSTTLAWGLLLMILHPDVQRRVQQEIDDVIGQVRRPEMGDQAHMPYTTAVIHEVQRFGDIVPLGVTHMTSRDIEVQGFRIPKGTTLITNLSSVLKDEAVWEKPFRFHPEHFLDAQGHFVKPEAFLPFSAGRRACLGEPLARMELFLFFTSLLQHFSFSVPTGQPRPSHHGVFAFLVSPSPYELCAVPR

Molecule `Cc1ccnc([C@@H]2CCCN2Cc2cc(N3CCN(C)CC3)nc(C)n2)c1` gave a concentration for half-maximal inhibition (IC50) in data set [1] of 216 nM.
Turning to `Cc1nc(CN2CCC(C)C2c2ccccn2)cc(N2CCN(C)CC2)n1` (stereo unspecified), the IC50 in data set [1] stood at 1550 nM.
For the molecule `Cc1nc(CN2CCC[C@H]2c2ncccc2C)cc(N2CCN(C)CC2)n1`, the fraction unbound at 1 µM is 0.67 in data set [2], 0.56 in data set [22] and 0.05 in data set [23]. Moreover, the CLint scaled at 1 µM is 123 mL/min/kg in data set [3] and 66 mL/min/kg in data set [24]. Besides, the half-life at 1 µM was 20.2 min in data set [4] and 26.2 min in data set [25]. Also, the results for the half-inhibitory concentration (IC50) in data set [1], in data set [5] and in data set [21] were 79 nM, 0.25 nM and over 30 µM, respectively. The same molecule returned a logD at 24 h in data set [6] of 1.12. In data set [7], this molecule showed a pKa of 8.2. The inhibition entry in data set [8] and in data set [9] was “inactive” each time. Besides, the inhibition entry in data set [10] is “Active”. The Activity result in [11], in [12], in data set [13] and in data set [14] was “Non-Toxic” in each case. Moreover, the inhibition at 10 min, 10 µM is -6% in data set [15]; 1% in data set [16]; 11% in data set [17]; -5% in [18]; 7% in data set [19]; -4% in [20]. Besides, the outcome in data set [26] was Active.
In the case of `Cc1nc(CN2CCC[C@H]2c2ccccn2)cc(N2CCN(C)CC2)n1`, the results for the 50% inhibitory concentration (IC50) in [1] and in [5] were 220 nM and 2.7 nM, respectively.
As to `Cc1nc(CN(C)C2CCCc3cccnc32)c(F)c(N2CCN(C)CC2)n1` (stereo unspecified), in data set [3], the CLint scaled at 1 µM worked out at 1080 mL/min/kg. The molecule further returned a half-life at 1 µM in data set [4] of 2.31 min.
Consider `Cc1ccc([C@@H]2CCCN2Cc2cc(N3CCN(C)CC3)nc(C)n2)nc1`, for which the concentration for half-maximal inhibition (IC50) in data set [5] is 4.9 nM.
As to `COc1nc(CN(C)C2CCCc3cccnc32)cc(N2CCN(C)CC2)n1` (stereo unspecified), in data set [3], the CLint scaled at 1 µM amounted to 1130 mL/min/kg. Moreover, the half-life at 1 µM in [4] turned out to be 2.2 min.
On the same counts, the results for `CCN(Cc1cc(N2CCN(C)CC2)nc(C)n1)C1CCCc2cccnc21` (stereo unspecified) are 1280 mL/min/kg and 1.95 min.
In the case of `Cc1nc(CN(C)[C@H]2CCCc3cccnc32)cc(N2CCN(C)[C@@H](C)C2)n1`, the CLint scaled at 1 µM in data set [3] was 1550 mL/min/kg. This molecule yielded a half-life at 1 µM in [4] of 1.6 min.
On the same counts, the results for `CCN1CCN(c2cc(CN(C)[C@H]3CCCc4cccnc43)nc(C)n2)CC1` are 2180 mL/min/kg and 1.14 min.
For `CCc1nc(CN(C)C2CCCc3cccnc32)cc(N2CCN(C)CC2)n1` (stereo unspecified), in that order: 2090 mL/min/kg and 1.19 min.
Regarding `Cc1nc(CN2CCC[C@H]2c2ncccc2C)cc(N2CCCN(C)CC2)n1`, in data set [5], the IC50 amounted to 0.4 nM.
As for `Cc1nc(CN(C)[C@H]2CCCc3cccnc32)cc(N2C[C@@H](C)N(C)[C@@H](C)C2)n1`, in data set [3], the CLint scaled at 1 µM is over 497 mL/min/kg. This molecule also had a half-life at 1 µM in data set [4] of under 1 min.
